{"source": "the kinase profiling compilation of Christmann-Franck et al. (2016)", "experiment_in_all_cases": "KINOMEscan competition binding", "conditions_in_all_cases": "compound 10.0 µM", "key": {"MAPK11 (human)": {"biological_target": "MAPK11 (human) (UniProt Q15759)"}, "IKBKE (human)": {"biological_target": "IKBKE (human) (UniProt Q14164)"}, "CDK19 (human)": {"biological_target": "CDK19 (human) (UniProt Q9BWU1)", "sequence (Q9BWU1 whole entry, looked up)": "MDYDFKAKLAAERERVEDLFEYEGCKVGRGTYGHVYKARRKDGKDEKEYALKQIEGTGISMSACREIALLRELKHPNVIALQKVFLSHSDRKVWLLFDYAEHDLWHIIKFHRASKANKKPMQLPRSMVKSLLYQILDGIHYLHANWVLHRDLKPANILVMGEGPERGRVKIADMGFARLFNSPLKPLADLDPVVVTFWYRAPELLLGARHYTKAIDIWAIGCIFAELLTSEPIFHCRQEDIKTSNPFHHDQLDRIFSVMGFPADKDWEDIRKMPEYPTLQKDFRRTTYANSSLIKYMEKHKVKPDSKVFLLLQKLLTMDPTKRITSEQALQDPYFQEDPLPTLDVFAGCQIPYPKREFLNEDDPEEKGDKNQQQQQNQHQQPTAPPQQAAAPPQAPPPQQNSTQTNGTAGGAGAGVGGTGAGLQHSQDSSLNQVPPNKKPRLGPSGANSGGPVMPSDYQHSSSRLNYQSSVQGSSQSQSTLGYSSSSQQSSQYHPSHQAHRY"}, "EPHA4 (human)": {"biological_target": "EPHA4 (human) (UniProt P54764)"}, "SRPK2 (human)": {"biological_target": "SRPK2 (human) (UniProt P78362)", "sequence (P78362 whole entry, looked up)": "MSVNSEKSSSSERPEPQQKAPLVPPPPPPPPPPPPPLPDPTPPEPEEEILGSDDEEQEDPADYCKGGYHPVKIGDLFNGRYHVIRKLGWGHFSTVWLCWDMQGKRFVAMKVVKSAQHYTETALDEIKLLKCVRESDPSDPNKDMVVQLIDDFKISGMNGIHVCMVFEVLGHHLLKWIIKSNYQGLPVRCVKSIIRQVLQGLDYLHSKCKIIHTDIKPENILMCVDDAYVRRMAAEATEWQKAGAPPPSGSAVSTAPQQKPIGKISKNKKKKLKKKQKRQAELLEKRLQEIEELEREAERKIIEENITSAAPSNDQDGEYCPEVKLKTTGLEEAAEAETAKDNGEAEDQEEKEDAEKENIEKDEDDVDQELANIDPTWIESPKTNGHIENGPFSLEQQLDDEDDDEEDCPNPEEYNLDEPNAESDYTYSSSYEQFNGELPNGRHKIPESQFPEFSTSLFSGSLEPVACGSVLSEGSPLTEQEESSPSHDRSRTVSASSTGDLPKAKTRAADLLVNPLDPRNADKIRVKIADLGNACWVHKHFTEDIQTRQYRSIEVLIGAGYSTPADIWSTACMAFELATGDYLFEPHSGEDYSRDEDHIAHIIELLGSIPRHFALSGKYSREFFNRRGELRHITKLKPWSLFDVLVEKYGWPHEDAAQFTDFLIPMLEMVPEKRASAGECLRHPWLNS"}, "STK17B (human)": {"biological_target": "STK17B (human) (UniProt O94768)"}, "SYK (human)": {"biological_target": "SYK (human) (UniProt P43405)"}, "KDR (human)": {"biological_target": "KDR (human) (UniProt P35968)"}, "CDK3 (human)": {"biological_target": "CDK3 (human) (UniProt Q00526)", "sequence (Q00526 whole entry, looked up)": "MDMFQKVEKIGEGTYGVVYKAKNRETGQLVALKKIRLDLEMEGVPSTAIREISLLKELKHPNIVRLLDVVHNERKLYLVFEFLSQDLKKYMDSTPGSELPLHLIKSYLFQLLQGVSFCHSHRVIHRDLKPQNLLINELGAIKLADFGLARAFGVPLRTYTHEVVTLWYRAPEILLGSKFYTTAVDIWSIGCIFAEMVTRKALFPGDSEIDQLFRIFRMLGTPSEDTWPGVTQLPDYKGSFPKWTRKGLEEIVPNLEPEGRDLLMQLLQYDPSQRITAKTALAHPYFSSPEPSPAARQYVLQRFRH"}, "LTK (human)": {"biological_target": "LTK (human) (UniProt P29376)"}, "GSK3A (human)": {"biological_target": "GSK3A (human) (UniProt P49840)", "sequence (P49840 whole entry, looked up)": "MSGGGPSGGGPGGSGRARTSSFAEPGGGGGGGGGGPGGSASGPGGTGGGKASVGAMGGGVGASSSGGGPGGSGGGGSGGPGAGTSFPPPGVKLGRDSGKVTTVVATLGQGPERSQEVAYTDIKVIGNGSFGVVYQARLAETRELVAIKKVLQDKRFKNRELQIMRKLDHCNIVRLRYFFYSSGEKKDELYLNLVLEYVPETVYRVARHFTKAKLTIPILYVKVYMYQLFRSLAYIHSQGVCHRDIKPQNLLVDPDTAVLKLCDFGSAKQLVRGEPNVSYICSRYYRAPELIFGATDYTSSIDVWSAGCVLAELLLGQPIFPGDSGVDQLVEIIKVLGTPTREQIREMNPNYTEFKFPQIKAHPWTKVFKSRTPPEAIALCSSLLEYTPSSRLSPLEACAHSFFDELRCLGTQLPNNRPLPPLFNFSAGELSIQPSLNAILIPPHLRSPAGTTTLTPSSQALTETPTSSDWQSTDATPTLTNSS"}, "MARK2 (human)": {"biological_target": "MARK2 (human) (UniProt Q7KZI7)"}, "ACVR2B (human)": {"biological_target": "ACVR2B (human) (UniProt Q13705)", "sequence (Q13705 whole entry, looked up)": "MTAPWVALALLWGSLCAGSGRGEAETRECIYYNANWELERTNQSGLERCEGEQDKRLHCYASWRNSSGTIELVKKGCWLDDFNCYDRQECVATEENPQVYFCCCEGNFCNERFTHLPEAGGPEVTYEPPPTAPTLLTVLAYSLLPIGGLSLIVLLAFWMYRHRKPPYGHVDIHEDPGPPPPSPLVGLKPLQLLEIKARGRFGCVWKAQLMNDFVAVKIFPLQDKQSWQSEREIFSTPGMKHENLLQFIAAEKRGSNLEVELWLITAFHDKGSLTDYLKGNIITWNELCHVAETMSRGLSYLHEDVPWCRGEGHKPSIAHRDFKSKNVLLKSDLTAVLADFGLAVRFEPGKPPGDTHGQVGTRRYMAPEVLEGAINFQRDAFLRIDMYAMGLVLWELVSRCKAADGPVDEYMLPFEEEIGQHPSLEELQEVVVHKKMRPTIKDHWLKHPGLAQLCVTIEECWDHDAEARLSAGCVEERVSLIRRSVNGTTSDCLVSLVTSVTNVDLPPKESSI"}, "MAP2K3 (human)": {"biological_target": "MAP2K3 (human) (UniProt P46734)"}, "RPS6KA5 KD1 (human)": {"biological_target": "RPS6KA5 KD1 (human) (UniProt O75582)"}, "CHUK (human)": {"biological_target": "CHUK (human) (UniProt O15111)"}, "ALK (human)": {"biological_target": "ALK (human) (UniProt Q9UM73)"}, "SGK110 (human)": {"biological_target": "SGK110 (human) (UniProt P0C264)"}, "NEK5 (human)": {"biological_target": "NEK5 (human) (UniProt Q6P3R8)"}, "MAP2K1 (human)": {"biological_target": "MAP2K1 (human) (UniProt Q02750)"}, "PRKD2 (human)": {"biological_target": "PRKD2 (human) (UniProt Q9BZL6)"}, "CAMKK2 (human)": {"biological_target": "CAMKK2 (human) (UniProt Q96RR4)"}, "CLK2 (human)": {"biological_target": "CLK2 (human) (UniProt P49760)"}, "PAK2 (human)": {"biological_target": "PAK2 (human) (UniProt Q13177)"}, "PRKX (human)": {"biological_target": "PRKX (human) (UniProt P51817)"}, "FYN (human)": {"biological_target": "FYN (human) (UniProt P06241)"}, "MAPK9 (human)": {"biological_target": "MAPK9 (human) (UniProt P45984)"}, "MAPK3 (human)": {"biological_target": "MAPK3 (human) (UniProt P27361)", "sequence (P27361 whole entry, looked up)": "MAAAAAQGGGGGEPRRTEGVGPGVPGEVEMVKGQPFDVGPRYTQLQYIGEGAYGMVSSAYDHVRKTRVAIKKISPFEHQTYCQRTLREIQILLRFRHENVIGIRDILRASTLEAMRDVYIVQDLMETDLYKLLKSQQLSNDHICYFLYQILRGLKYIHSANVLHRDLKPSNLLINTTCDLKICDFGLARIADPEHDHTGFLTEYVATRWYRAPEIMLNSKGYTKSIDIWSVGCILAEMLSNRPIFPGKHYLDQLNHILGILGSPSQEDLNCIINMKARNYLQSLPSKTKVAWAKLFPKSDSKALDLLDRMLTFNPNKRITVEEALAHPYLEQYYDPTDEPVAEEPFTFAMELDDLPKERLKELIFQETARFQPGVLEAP"}, "TESK1 (human)": {"biological_target": "TESK1 (human) (UniProt Q15569)"}, "CHEK2 (human)": {"biological_target": "CHEK2 (human) (UniProt O96017)"}, "MAP3K3 (human)": {"biological_target": "MAP3K3 (human) (UniProt Q99759)"}, "STK36 (human)": {"biological_target": "STK36 (human) (UniProt Q9NRP7)"}, "MAP3K5 (human)": {"biological_target": "MAP3K5 (human) (UniProt Q99683)", "sequence (Q99683 whole entry, looked up)": "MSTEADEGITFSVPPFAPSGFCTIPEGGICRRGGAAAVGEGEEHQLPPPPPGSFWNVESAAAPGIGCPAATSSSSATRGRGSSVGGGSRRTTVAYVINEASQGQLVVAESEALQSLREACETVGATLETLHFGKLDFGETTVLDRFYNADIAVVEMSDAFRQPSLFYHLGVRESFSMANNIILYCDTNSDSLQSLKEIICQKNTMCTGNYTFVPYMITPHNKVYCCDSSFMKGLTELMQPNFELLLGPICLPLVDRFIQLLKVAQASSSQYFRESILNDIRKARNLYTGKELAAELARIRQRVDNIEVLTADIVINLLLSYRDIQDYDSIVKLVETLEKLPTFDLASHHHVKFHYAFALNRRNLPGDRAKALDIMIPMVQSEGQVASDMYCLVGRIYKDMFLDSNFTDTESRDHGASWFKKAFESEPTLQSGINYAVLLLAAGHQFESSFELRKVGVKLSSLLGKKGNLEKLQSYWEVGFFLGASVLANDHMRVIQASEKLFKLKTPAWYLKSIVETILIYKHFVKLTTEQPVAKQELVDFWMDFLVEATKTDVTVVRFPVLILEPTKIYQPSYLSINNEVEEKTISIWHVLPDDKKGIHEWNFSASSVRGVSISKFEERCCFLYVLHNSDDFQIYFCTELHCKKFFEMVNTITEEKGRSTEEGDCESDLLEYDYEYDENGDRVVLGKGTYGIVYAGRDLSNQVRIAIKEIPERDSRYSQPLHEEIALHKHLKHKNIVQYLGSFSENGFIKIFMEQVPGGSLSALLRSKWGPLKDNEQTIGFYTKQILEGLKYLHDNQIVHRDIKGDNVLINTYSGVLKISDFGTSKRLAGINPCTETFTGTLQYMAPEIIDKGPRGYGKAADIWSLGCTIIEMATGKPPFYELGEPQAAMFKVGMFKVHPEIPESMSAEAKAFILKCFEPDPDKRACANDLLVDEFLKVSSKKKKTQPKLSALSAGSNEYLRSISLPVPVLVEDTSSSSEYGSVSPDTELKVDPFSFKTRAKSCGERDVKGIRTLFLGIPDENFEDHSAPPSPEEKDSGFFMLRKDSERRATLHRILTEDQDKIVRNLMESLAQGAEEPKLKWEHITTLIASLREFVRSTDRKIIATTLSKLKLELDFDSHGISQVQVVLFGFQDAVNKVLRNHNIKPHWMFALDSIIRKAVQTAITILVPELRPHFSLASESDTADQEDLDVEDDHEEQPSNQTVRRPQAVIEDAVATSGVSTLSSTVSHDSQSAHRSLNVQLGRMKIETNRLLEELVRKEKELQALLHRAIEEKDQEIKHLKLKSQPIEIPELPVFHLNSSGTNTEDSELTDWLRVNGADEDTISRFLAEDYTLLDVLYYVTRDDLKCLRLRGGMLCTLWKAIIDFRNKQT"}, "ROCK2 (human)": {"biological_target": "ROCK2 (human) (UniProt O75116)"}, "[1]": {"biological_target": "TYK2 JH2 pseudokinase (human) (UniProt P29597)"}, "ACVR1B (human)": {"biological_target": "ACVR1B (human) (UniProt P36896)"}, "PIP5K1A (human)": {"biological_target": "PIP5K1A (human) (UniProt Q99755)", "sequence (Q99755 whole entry, looked up)": "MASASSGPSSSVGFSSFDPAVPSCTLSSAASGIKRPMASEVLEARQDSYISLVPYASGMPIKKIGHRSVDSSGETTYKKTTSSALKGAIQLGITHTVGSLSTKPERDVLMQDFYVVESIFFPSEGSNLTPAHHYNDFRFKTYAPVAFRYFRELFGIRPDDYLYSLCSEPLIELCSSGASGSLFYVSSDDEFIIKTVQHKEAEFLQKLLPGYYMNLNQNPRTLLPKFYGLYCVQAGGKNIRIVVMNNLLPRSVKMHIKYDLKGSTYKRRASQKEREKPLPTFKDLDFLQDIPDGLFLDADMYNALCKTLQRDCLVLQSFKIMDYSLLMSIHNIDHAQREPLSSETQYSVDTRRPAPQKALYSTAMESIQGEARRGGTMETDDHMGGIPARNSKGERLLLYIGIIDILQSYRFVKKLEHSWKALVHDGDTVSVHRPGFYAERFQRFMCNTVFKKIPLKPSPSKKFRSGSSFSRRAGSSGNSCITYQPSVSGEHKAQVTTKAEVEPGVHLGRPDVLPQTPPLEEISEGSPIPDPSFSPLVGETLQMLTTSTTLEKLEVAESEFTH"}, "SIK1 (human)": {"biological_target": "SIK1 (human) (UniProt P57059)"}}, "data": [{"smiles": "COc1cc(N2CCN(C)CC2)ccc1Nc1nc(N)c(C(=O)c2c(Cl)cccc2Cl)s1", "values": [{"measurement": "kinase still bound, per cent of control", "setting": "MAPK11 (human)", "result": 77, "unit": "%"}, {"measurement": "kinase still bound, per cent of control", "setting": "IKBKE (human)", "result": 87, "unit": "%"}, {"measurement": "kinase still bound, per cent of control", "setting": "CDK19 (human)", "result": 93, "unit": "%"}, {"measurement": "kinase still bound, per cent of control", "setting": "EPHA4 (human)", "result": 90, "unit": "%"}, {"measurement": "kinase still bound, per cent of control", "setting": "SRPK2 (human)", "result": 100, "unit": "%"}, {"measurement": "kinase still bound, per cent of control", "setting": "STK17B (human)", "result": 73, "unit": "%"}, {"measurement": "kinase still bound, per cent of control", "setting": "SYK (human)", "result": 59, "unit": "%"}, {"measurement": "kinase still bound, per cent of control", "setting": "KDR (human)", "result": 97, "unit": "%"}, {"measurement": "kinase still bound, per cent of control", "setting": "CDK3 (human)", "result": 97, "unit": "%"}, {"measurement": "kinase still bound, per cent of control", "setting": "LTK (human)", "result": 4.2, "unit": "%"}, {"measurement": "kinase still bound, per cent of control", "setting": "GSK3A (human)", "result": 67, "unit": "%"}, {"measurement": "kinase still bound, per cent of control", "setting": "MARK2 (human)", "result": 90, "unit": "%"}, {"measurement": "kinase still bound, per cent of control", "setting": "ACVR2B (human)", "result": 92, "unit": "%"}, {"measurement": "kinase still bound, per cent of control", "setting": "MAP2K3 (human)", "result": 79, "unit": "%"}, {"measurement": "kinase still bound, per cent of control", "setting": "RPS6KA5 KD1 (human)", "result": 100, "unit": "%"}, {"measurement": "kinase still bound, per cent of control", "setting": "CHUK (human)", "result": 58, "unit": "%"}, {"measurement": "kinase still bound, per cent of control", "setting": "ALK (human)", "result": 0.35, "unit": "%"}, {"measurement": "kinase still bound, per cent of control", "setting": "SGK110 (human)", "result": 100, "unit": "%"}, {"measurement": "kinase still bound, per cent of control", "setting": "NEK5 (human)", "result": 96, "unit": "%"}, {"measurement": "kinase still bound, per cent of control", "setting": "MAP2K1 (human)", "result": 100, "unit": "%"}, {"measurement": "kinase still bound, per cent of control", "setting": "PRKD2 (human)", "result": 78, "unit": "%"}, {"measurement": "kinase still bound, per cent of control", "setting": "CAMKK2 (human)", "result": 14, "unit": "%"}, {"measurement": "kinase still bound, per cent of control", "setting": "CLK2 (human)", "result": 13, "unit": "%"}, {"measurement": "kinase still bound, per cent of control", "setting": "PAK2 (human)", "result": 100, "unit": "%"}, {"measurement": "kinase still bound, per cent of control", "setting": "PRKX (human)", "result": 93, "unit": "%"}, {"measurement": "kinase still bound, per cent of control", "setting": "FYN (human)", "result": 89, "unit": "%"}, {"measurement": "kinase still bound, per cent of control", "setting": "MAPK9 (human)", "result": 100, "unit": "%"}, {"measurement": "kinase still bound, per cent of control", "setting": "MAPK3 (human)", "result": 100, "unit": "%"}, {"measurement": "kinase still bound, per cent of control", "setting": "TESK1 (human)", "result": 100, "unit": "%"}, {"measurement": "kinase still bound, per cent of control", "setting": "CHEK2 (human)", "result": 100, "unit": "%"}, {"measurement": "kinase still bound, per cent of control", "setting": "MAP3K3 (human)", "result": 76, "unit": "%"}, {"measurement": "kinase still bound, per cent of control", "setting": "STK36 (human)", "result": 100, "unit": "%"}, {"measurement": "kinase still bound, per cent of control", "setting": "MAP3K5 (human)", "result": 100, "unit": "%"}, {"measurement": "kinase still bound, per cent of control", "setting": "ROCK2 (human)", "result": 88, "unit": "%"}, {"measurement": "kinase still bound, per cent of control", "setting": "[1]", "result": 60, "unit": "%"}, {"measurement": "kinase still bound, per cent of control", "setting": "ACVR1B (human)", "result": 100, "unit": "%"}, {"measurement": "kinase still bound, per cent of control", "setting": "PIP5K1A (human)", "result": 88, "unit": "%"}, {"measurement": "kinase still bound, per cent of control", "setting": "SIK1 (human)", "result": 86, "unit": "%"}]}]}
